Data published in patent US20230128815A1, “ADJUVANT COMPOUNDS, SALT FORMS, AND FORMULATIONS” (ADJUVANCE TECHNOLOGIES, INC., priority 2020, published 2023).
Where a name gives a salt, the structure may show the parent alone.

Assays:
[1] = Solubility in water; format: physicochemical
[2] = compared to QS-21; cited from earlier work
[3] = TQL-1055 choline salt and free acid ethanol solubility; format: physicochemical; conditions: 100% ethanol, 37 °C, organic solvent or mixture, thermodynamic from solid, solubility in 100% ethanol, vortex mixed, sonicated at 37° C. for five minutes
Description: An experiment was conducted to determine the solubility of TQL-1055 choline salt and TQL-1055 free acid in ethanol. Several samples were prepared, each containing either TQL-1055 choline salt or TQL-1055 free acid dissolved in a 100% ethanol solution at a concentration of 4 mg/ml. All samples were mixed using a vortex mixer and subsequently sonicated at 37° C. for five minutes. Neither the TQL-1055 choline salt nor the TQL-1055 free acid were fully dissolved at 4 mg/ml. Samples were then diluted to 3.5 mg/ml, 3 mg/ml, 2.5 mg/ml, or 2 mg/ml and re-sonicated. As depicted in FIGS. 16-18, TQL-1055 choline salt was completely dissolved at a concentration of 3 mg/ml, whereas TQL-1055 free acid was completely dissolved at a concentration of 2 mg/ml. Accordingly, TQL-1055 choline salt is soluble in 100% ethanol up to concentrations of approximately 3 mg/ml, whereas TQL-1055 free acid is soluble in 100% ethanol up to concentrations of approximately 2 mg/ml.

[4] = Dynamic vapor sorption (DVS) / humidity-dependent form stability; format: physicochemical
Description: Automated vapor sorption (VS) data were collected on a Surface Measurement System DVS Intrinsic instrument. Samples were not dried prior to analysis. Sorption and desorption data were collected over a range from 5% to 95% RH at 10% RH increments under a nitrogen purge. The equilibrium criterion used for analysis was less than 0.0100% weight change in 5 minutes with a maximum equilibration time of 3 hours. Data were not corrected for the initial moisture content of the samples.

[5] = from 5 to 65% relative humidity

solubility in water at physiological pH ([1]; physiological pH) | solubility at 5 min [3] [µg/mL] | solubility [1] [µg/mL] | DVS additional weight gain ([4]; above 65% up to 95% relative humidity) [%] | DVS weight gain [4, 5] [%] | water gain equivalent to DVS weight gain [4, 5] [mol/mol] | DVS weight loss on desorption ([4]; from 95 to 5% relative humidity) [%] | relative humidity above which the form converts to higher hydrate Choline Material B ([4]; relative humidity) | SMILES | efficacy as compared to the natural product [2] | toxicity as compared to the natural product [2]
poor solubility | ~2000 | – | – | – | – | – | – | CC1O[C@@H](OC2C(O)[C@@H](NC(=O)CCCCCCCCCCC(=O)O)C(CO)O[C@H]2OC(=O)[C@]23CCC(C)(C)CC2C2=CCC4C5(C)CC[C@H](O)[C@](C)(C=O)[C@@H]5CC[C@]4(C)[C@]2(C)CC3O)C(O)C(O)[C@H]1O[C@@H]1OC[C@@H](O)C(O)C1O (some centres unmarked) [Compound I-4] | improved efficacy | reduced toxicity
– | – | > 6000 | 14 | 5 | ~3.5 | 19 | above 65% | CC1O[C@@H](OC2C(O)[C@@H](NC(=O)CCCCCCCCCCC(=O)O)C(CO)O[C@H]2OC(=O)[C@]23CCC(C)(C)CC2C2=CCC4C5(C)CC[C@H](O)C(C)(C=O)C5CCC4(C)C2(C)CC3O)C(O)C(O)[C@H]1O[C@@H]1OC[C@@H](O)C(O)C1O (some centres unmarked) [Form A] | – | –
– | ~3000 | – | – | – | – | – | – | CC1O[C@@H](OC2C(O)[C@@H](NC(=O)CCCCCCCCCCC(=O)O)C(CO)O[C@H]2OC(=O)[C@]23CCC(C)(C)CC2C2=CCC4C5(C)CC[C@H](O)C(C)(C=O)C5CCC4(C)C2(C)CC3O)C(O)C(O)[C@H]1O[C@@H]1OC[C@@H](O)C(O)C1O (some centres unmarked) [TQL-1055 choline salt] | – | –
